# Data: publication PMC12220852, “An adamantane‐based ligand as a novel chemical tool for thermosensory TRPM8 channel therapeutic modulation” (The Febs Journal, 2025)
# Values joined by “and” are separate entries in the source; they are usually repeats but may differ in a detail not shown here. Equal values may be shown once.
# Key:
# Assay type in all cases: cell-based
# hTRPM8 = molecular target: T1, hTRPM8 (Homo sapiens, UniProt Q7Z2W7); assay: Whole-cell patch-clamp of WS-12-evoked currents in HEK293 cells expressing hTRPM8
# T1 construct: expressed in transfected cells; host or cells: HEK293 (transient, Lipofectamine 3000)
# Description: We first used patch‐clamp to investigate the potency and blockade mechanism of compound 23 inhibiting WS‐12 evoked ionic currents in hTRPM8‐HEK293 cells. […] This blockade activity was reversible as virtually all WS‐12‐evoked ionic current could be recovered upon washout (Fig. 3A, bottom panel), thus preventing a use‐dependent side effect.
# To unveil the underlying mechanism of channel blockade (competitive vs noncompetitive) we evaluated the effect of the α‐acyloxy carboxamide 23 on WS‐12 activating potency. For this purpose, we obtained the WS‐12 dose response in the absence and presence of 80 nM compound 23 (corresponding to its IC50 value).
# For this purpose, we run 100 ms voltage ramps from −120 to 120 mV activated by WS‐12 in the absence and presence of 80 nM α‐acyloxy carboxamide 23.
# Recording through patch‐clamp techniques was performed on HEK293 cells cultured in DMEM GlutaMax with 10% FBS and 1% P/S. The cell lines were authenticated following the standardization of STR Profiling guidelines (ANSI/ATCC ASN‐0002‐2022) using the CLA Identifier Plus PCR Amplification Kit (Thermo Fisher‐A44660) to analyze 16 highly variant human STRs. The cells were confirmed to be mycoplasma‐free. These cells were transiently transfected with plasmids encoding hTRPV1, hTRPM8, or hTRPA1 using Lipofectamine 3000. Transfected cells were seeded on 12 mm Ø glass coverslips treated with poly‐L‐lysine solution and recorded 2 days post‐transfection. The intracellular pipette solution included (in mM) 150 NaCl, 3 MgCl2, 5 EGTA, and 10 HEPES, pH 7.2 with CsOH, while the extracellular solution contained (in mM) 150 NaCl, 6 CsCl, 1 MgCl2, 1.5 CaCl2, 10 glucose, and 10 HEPES, pH 7.4 with NaOH. An EPC‐10 amplifier with Patchmaster software was used in whole‐cell experiments. Patch pipettes, created from thin‐wall borosilicate capillary glass tubing, were pulled with a Micropipette puller to a final resistance of 2–8 MΩ when filled with the internal solution. Recordings were acquired at 10 kHz and low‐pass filtered at 3 kHz, discarding recordings with leak currents > 200pA or series resistance > 20 MΩ. In voltage‐clamp recordings, cells were held at a constant potential, and the application of modulators was carried out using a gravity‐driven perfusion system. Total currents were normalized to the first current peak evoked by the activating stimuli. To study the effect of compound 23 on TRPM8 voltage dependence, a voltage step protocol from −120 to 120 mV was used with 100 ms steps of 20 mV from a holding potential at 0 mV. Leak currents were not subtracted, and conductance was calculated using the equation: G = I/(V − V r), where I is the measured ionic current, V is the applied voltage, and V r is the reversal potential that for the ionic conditions used was set to 0 mV.
# Dose–response relationships for WS‐12 channel activation were normalized to the response of the channel to a saturating concentration of the agonist. Similarly, dose–response curves for blockade activity were normalized with respect to the response in the absence of the blocker. The experimental data were fitted to the Hill equation: Y=Bottom+Top‐Bottom/(1+10^ligand−LogIC50orLogEC50) using PRISM 9 software. Top was fixed to 100, as the unblocked response or the maximal response for WS‐12.
# [1] = molecular target: T2, recombinant human TRPM8 stably expressed in HEK293 cells (hTRPM8) (Homo sapiens, UniProt Q7Z2W7); assay: Ca2+ microfluorimetry screen for agonist/antagonist activity in hTRPM8-HEK293 cells
# T2 construct: expressed in transfected cells
# Description: We first evaluated the series of compounds 20–29 synthesized using the Passerini‐Adamantane reaction. All compounds were screened for channel agonism and antagonism on recombinant human TRPM8 stably expressed in HEK293 cells (hTRPM8‐HEK293) with Ca^2+ microfluorimetry. […] Compound‐induced TRPM8‐mediated Ca^2+ influx was confirmed using untransfected HEK293 cells and the channel blocker AMTB. […] The concentration of compounds to reach half of channel activation (EC50) or to block half‐channel activity evoked by WS‐12 (IC50) are reported in Table 1, along with the percentage of maximal activation or blockade (Efficacy).
# Assays were conducted to assess the channel activity of the recombinant hTRPM8 stably expressed in HEK‐293 cells. HEK‐293‐hTRPM8 cells were cultured in a monolayer using a DMEM GlutaMax with 10% FBS and 1% P/S and maintained at 37 °C in 5% CO2. For experiments, cells were prepared and seeded at the indicated densities. To evaluate compound effectiveness against hTRPM8 activity, microfluorometry‐based calcium flux assays were performed using Fluo‐4 NW Ca^2+ dye and fluorescence detection. HEK cell lines expressing hTRPM8 were seeded in 96‐well plates and incubated with the dye‐loading solution. Ion channel activity was measured using a plate reader, and fluorescence intensity changes were recorded following the addition of vehicle, compound at varying concentrations, and antagonist (10 μM AMTB). Data analysis included calculating the Z‐factor for each assay and normalizing compound effects to […]. Data were analyzed to determine the concentration exerting half‐maximal inhibition (IC50) or activation (EC50) of agonist‐induced calcium elevation, using GRAPHPAD PRISM8® software (Boston, MA, USA). All experiments were conducted in triplicate, and results are presented as mean ± standard deviation.
# hTRPV1 = molecular target: T3, hTRPV1 (Homo sapiens, UniProt Q8NER1); assay: Whole-cell patch-clamp of capsaicin-evoked currents in HEK293 cells expressing hTRPV1; settings: −60 mV
# T3 construct: expressed in transfected cells; host or cells: HEK293 (transient, Lipofectamine 3000)
# Experimental: To evaluate receptor selectivity, we investigated the activity of compound 23 on recombinant hTRPV1 and hTRPA1 channels recombinantly expressed in HEK293 cells (Fig. 4). We choose these thermosensory channels because of their structural similarity and expression in peripheral nociceptive terminals. In addition, some ligand cross‐interaction within these channels has been reported.
# Recording through patch‐clamp techniques was performed on HEK293 cells cultured in DMEM GlutaMax with 10% FBS and 1% P/S. The cell lines were authenticated following the standardization of STR Profiling guidelines (ANSI/ATCC ASN‐0002‐2022) using the CLA Identifier Plus PCR Amplification Kit (Thermo Fisher‐A44660) to analyze 16 highly variant human STRs. The cells were confirmed to be mycoplasma‐free. These cells were transiently transfected with plasmids encoding hTRPV1, hTRPM8, or hTRPA1 using Lipofectamine 3000. Transfected cells were seeded on 12 mm Ø glass coverslips treated with poly‐L‐lysine solution and recorded 2 days post‐transfection. […] Leak currents were not subtracted, and conductance was calculated using the equation: G = I/(V − V r), where I is the measured ionic current, V is the applied voltage, and V r is the reversal potential that for the ionic conditions used was set to 0 mV. […]
# T1 sequence (Q7Z2W7 whole entry): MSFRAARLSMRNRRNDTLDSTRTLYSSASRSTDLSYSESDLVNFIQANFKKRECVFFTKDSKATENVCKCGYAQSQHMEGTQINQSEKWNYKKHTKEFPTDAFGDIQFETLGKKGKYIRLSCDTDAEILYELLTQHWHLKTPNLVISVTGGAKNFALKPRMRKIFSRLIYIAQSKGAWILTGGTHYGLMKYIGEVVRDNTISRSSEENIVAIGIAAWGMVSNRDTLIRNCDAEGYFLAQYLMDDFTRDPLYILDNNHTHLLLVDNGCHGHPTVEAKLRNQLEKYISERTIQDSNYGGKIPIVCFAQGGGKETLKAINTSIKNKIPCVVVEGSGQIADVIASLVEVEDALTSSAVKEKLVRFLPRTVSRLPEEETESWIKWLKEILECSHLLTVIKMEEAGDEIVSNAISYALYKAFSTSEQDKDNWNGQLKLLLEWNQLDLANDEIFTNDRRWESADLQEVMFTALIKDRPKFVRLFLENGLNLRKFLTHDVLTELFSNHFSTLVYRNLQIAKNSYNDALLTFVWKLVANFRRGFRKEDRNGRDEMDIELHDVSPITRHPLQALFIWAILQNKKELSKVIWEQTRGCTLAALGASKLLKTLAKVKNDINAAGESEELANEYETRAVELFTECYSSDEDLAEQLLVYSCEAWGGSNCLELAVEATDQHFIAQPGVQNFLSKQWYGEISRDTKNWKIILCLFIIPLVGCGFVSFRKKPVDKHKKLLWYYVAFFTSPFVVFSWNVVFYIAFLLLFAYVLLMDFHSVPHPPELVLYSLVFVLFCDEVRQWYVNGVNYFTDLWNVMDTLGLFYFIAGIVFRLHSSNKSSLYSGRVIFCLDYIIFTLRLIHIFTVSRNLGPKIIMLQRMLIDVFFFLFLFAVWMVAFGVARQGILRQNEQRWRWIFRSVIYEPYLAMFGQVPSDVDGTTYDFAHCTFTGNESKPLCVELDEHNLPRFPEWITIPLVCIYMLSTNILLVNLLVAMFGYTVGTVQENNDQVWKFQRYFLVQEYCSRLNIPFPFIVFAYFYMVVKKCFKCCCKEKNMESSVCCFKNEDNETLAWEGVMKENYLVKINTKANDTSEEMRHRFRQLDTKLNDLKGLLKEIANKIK
# T2 sequence (Q7Z2W7 whole entry): as above
# T3 sequence (Q8NER1 whole entry): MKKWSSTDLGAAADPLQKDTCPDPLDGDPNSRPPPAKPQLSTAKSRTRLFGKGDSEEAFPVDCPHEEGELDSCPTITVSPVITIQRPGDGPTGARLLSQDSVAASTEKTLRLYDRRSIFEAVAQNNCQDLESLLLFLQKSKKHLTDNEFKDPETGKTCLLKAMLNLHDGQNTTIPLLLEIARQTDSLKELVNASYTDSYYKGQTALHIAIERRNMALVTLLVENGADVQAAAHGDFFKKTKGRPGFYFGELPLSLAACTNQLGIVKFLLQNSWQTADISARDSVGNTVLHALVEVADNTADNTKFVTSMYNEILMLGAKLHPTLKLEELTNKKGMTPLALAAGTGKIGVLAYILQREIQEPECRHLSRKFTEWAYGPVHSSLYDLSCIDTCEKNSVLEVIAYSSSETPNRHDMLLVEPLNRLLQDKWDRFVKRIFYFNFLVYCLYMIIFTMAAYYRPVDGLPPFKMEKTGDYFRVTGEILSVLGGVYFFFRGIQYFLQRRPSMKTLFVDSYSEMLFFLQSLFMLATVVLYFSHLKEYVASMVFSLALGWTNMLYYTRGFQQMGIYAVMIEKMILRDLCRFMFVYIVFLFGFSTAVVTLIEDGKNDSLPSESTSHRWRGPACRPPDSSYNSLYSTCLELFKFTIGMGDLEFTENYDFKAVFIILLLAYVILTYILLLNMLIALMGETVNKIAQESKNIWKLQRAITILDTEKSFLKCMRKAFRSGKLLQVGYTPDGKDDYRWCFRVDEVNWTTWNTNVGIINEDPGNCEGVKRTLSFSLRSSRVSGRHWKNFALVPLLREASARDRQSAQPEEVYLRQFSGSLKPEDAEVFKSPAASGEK
compound,measurement,setting,value
"O=C(COC(=O)c1ccccc1-c1ccccc1)NC12CC3CC(CC(C3)C1)C2 [Compound 23, 2‐((3S,5S,7S)‐adamantan‐1‐ylamino)‐2‐oxoethyl [1,1′‐biphenyl]‐2‐carboxylate]",reduction of WS‐12 evoked inward current,"hTRPM8; 1 μM compound, 1 μM WS-12, holding potential −60 mV",≥ 75%
same,Schild plot slope,"hTRPM8; WS12 vs compound 23 at 0.02, 0.08, 0.1, 0.5 μM",1.003 and 1.0
same,reversibility of blockade upon washout,hTRPM8; WS-12-evoked current recovered after washout,reversible
same,mechanism of channel blockade,hTRPM8; WS-12 dose-response shift and Schild plot,competitive
same,Hill coefficient of hTRPM8 current blockade,"hTRPM8; patch-clamp dose-response, −60 mV",1
same,IC50,"hTRPM8; patch-clamp, WS-12 evoked current, −60 mV, N = 3, n = 10, read-out: IC50 of hTRPM8 current blockade",80 ± 70 nM
same,voltage dependency of channel blockade,"hTRPM8; voltage steps −120 to 120 mV, 0.08 μM compound 23, 10 μM AMTB",not voltage dependent
same,Activity (agonist/antagonist),"[1]; hTRPM8-HEK293, agonism = compound-induced Ca2+ influx, antagonism = modulation of WS-12-induced Ca2+ influx",Antagonist
same,IC50,"[1]; hTRPM8-HEK293, block of half channel activity evoked by WS-12, mean ± SD, N = 3, read-out: IC50",200 nM
same,Hill coefficient,"[1]; hTRPM8-HEK293 Ca2+ microfluorimetry dose-response, mean ± SD",0.5 ± 0.9
same,block of hTRPV1‐channel activity,"hTRPV1; 1 μM compound, 0.5 μM capsaicin",≈ 50%
same,IC50,"hTRPV1; capsaicin-evoked current, n = 6, read-out: IC50 of hTRPV1 current blockade",1100 nM and 1000 nM
